These compounds were tested against T1, BTK (Homo sapiens, UniProt Q06187) (assay: BTK degradation activity test in Mino cells). Details: 16 h incubation, Western blot or Elisa.
T1 construct: endogenous in cells; host or cells: Mino cells
Format: cell-based
Procedure: Mino cell line cells were seeded at 500,000 to 1,000,000 cells/well in a 6-well plate. The compounds were diluted to different concentrations and added to the plate, and after 16 h of incubation, cells were harvested. After lysing the cells, the total protein concentration in each well was determined using the BCA method. The amount of BTK was determined using Western blot or Elisa method. The amount of undegraded BTK protein at each drug concentration was compared with the amount of BTK protein in the blank control group to calculate the degradation rate. The degradation curve was drawn based on the degradation rate at each concentration, and the half degradation concentration (DC50) was calculated by fitting.

T1 sequence (Q06187 whole entry): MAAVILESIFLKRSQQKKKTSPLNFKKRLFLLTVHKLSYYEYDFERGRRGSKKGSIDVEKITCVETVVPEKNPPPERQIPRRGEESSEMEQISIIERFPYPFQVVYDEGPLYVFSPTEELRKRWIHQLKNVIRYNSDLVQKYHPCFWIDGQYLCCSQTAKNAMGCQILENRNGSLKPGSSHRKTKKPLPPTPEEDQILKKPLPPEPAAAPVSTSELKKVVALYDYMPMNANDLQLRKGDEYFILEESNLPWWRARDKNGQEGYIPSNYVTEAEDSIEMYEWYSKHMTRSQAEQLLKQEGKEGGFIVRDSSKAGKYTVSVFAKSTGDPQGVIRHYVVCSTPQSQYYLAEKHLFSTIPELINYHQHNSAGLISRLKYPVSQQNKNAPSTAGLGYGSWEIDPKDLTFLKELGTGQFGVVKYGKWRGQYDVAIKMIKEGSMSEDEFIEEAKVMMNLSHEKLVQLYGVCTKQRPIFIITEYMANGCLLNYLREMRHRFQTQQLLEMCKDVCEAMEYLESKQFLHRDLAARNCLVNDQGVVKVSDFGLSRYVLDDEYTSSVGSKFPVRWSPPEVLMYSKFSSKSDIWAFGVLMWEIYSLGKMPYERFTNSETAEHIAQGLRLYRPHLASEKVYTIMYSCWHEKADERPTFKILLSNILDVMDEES

SMILES	DC50
CN1C(=O)N(C2CCCN(c3cnc(C(N)=O)c(Nc4ccc(C5(C)CCN(C6CN(c7ccc8c(c7)C(=O)N(C7CCC(=O)NC7=O)C8=O)C6)CC5)cc4)n3)C2)CC12CC2 (centres unmarked) [Compound 010, 3-((4-(1-(1-(2-(2,6-dioxopiperidin-3-yl)-1,3-dioxoisoindol-5-yl)azetidin-3-yl)-4-methylpiperidin-4-yl)phenyl)amino)-5-(3-(4-methyl-5-oxo-4,6-diazaspirocyclo[2.4]heptan-6-yl)piperidin-1-yl)pyrazin-2-carboxamide]	> 1 nM
CN1C(=O)N(C2CCCN(c3cnc(C(N)=O)c(Nc4ccc(C5(C)CCN(C6CN(c7ccc8c(c7)C(=O)N(C7CCC(=O)NC7=O)C8=O)C6)CC5)cc4)n3)C2)CC12CCC2 (centres unmarked) [Compound 011, 3-((4-(1-(1-(2-(2,6-dioxopiperidin-3-yl)-1,3-dioxoisoindol-5-yl)azetidin-3-yl)-4-methylpiperidin-4-yl)phenyl)amino)-5-(3-(5-methyl-6-oxo-5,7-diazaspirocyclo[3.4]octan-7-yl)piperidin-1-yl)pyrazin-2-carboxamide]	< 1 nM
CC1(c2ccc(Nc3nc(N4CCCC(N5CCN(C6COC6)C5=O)C4)cnc3C(N)=O)cc2)CCN(C2CCN(c3ccc4c(c3)C(=O)N(C3CCC(=O)NC3=O)C4=O)CC2)CC1 (centres unmarked) [Compound 012, 3-((4-(1′-(2-(2,6-dioxopiperidin-3-yl)-1,3-dioxoisoindol-5-yl)-4-methyl-[1,4′-bipiperidin]-4-yl)phenyl)amino)-5-(3-(3-(oxetan-3-yl)-2-oxoimidazolin-1-yl)piperidin-1-yl)pyrazin-2-carboxamide]	< 1 nM
CC1(c2ccc(Nc3nc(N4CCCC(N5CCN(C6COC6)C5=O)C4)cnc3C(N)=O)cc2)CCN(C2CCN(c3ccc4c(c3)CN(C3CCC(=O)NC3=O)C4=O)CC2)CC1 (centres unmarked) [Compound 013, 3-((4-(1′-(2-(2,6-dioxopiperidin-3-yl)-1-oxoisoindol-5-yl)-4-methyl-[1,4′-bipiperidin]-4-yl)phenyl)amino)-5-(3-(3-(oxetan-3-yl)-2-oxoimidazolin-1-yl)piperidin-1-yl)pyrazin-2-carboxamide]	< 1 nM
CC1(c2ccc(Nc3nc(N4CCCC(N5CCN(C6COC6)C5=O)C4)cnc3C(N)=O)cc2)CCN(C2CN(c3ccc4c(c3)CN(C3CCC(=O)NC3=O)C4=O)C2)CC1 (centres unmarked) [Compound 014, 3-((4-(1-(1-(2-(2,6-dioxopiperidin-3-yl)-1-oxoisoindol-5-yl)azetidin-3-yl)-4-methylpiperidin-4-yl)phenyl)amino)-5-(3-(3-(oxetan-3-yl)-2-oxoimidazolin-1-yl)piperidin-1-yl)pyrazin-2-carboxamide]	< 1 nM
NC(=O)c1ncc(N2CCCC(N3CCN(C4COC4)C3=O)C2)nc1Nc1ccc(N2CCN(C3CN(c4ccc5c(c4)C(=O)N(C4CCC(=O)NC4=O)C5=O)C3)CC2)cc1 (centres unmarked) [Compound 015, 3-((4-(4-(1-(2-(2,6-dioxopiperidin-3-yl)-1,3-dioxoisoindol-5-yl)azetidin-3-yl)piperazin-1-yl)phenyl)amino)-5-(3-(3-(oxetan-3-yl)-2-oxoimidazolin-1-yl)piperidin-1-yl) pyrazin-2-carboxamide]	< 1 nM
NC(=O)c1ncc(N2CCCC(N3CCN(C4COC4)C3=O)C2)nc1Nc1ccc(N2CCN(CC3CN(c4ccc5c(c4)C(=O)N(C4CCC(=O)NC4=O)C5=O)C3)CC2)cc1 (centres unmarked) [Compound 016, 3-((4-(4-((1-(2-(2,6-dioxopiperidin-3-yl)-1,3-dioxoisoindol-5-yl)azetidine-3-yl)methyl)piperazin-1-yl)phenyl)amino)-5-(3-(3-(oxetan-3-yl)-2-oxoimidazolin-1-yl)piperidin-1-yl)pyrazin-2-carboxamide]	< 1 nM
NC(=O)c1ncc(N2CCCC(N3CCN(C4COC4)C3=O)C2)nc1Nc1ccc(N2CCC3(CC2)CCN(c2ccc4c(c2)C(=O)N(C2CCC(=O)NC2=O)C4=O)CC3)cc1 (centres unmarked) [Compound 017, 3-((4-(9-(2-(2,6-dioxopiperidin-3-yl)-1,3-dioxoisoindol-5-yl)-3,9-diazaspirocyclo[5.5]undec-3-yl)phenyl)amino)-5-(3-(3-(oxetan-3-yl)-2-oxoimidazolin-1-yl)piperidin-1-yl)pyrazin-2-carboxamide]	< 1 nM
NC(=O)c1ncc(N2CCCC(N3CCN(C4COC4)C3=O)C2)nc1Nc1ccc(N2CC3(C2)CN(c2ccc4c(c2)C(=O)N(C2CCC(=O)NC2=O)C4=O)C3)cc1 (centres unmarked) [Compound 018, 3-((4-(6-(2-(2,6-dioxopiperidin-3-yl)-1,3-dioxoisoindol-5-yl)-2,6-diazaspirocyclo[3.3]heptan-2-yl)phenyl)amino)-5-(3-(3-(oxetan-3-yl)-2-oxoimidazolin-1-yl)piperidin-1-yl)pyrazin-2-carboxamide]	< 1 nM
NC(=O)c1ncc(N2CCCC(N3CCN(C4COC4)C3=O)C2)nc1Nc1ccc(N2CCC3(CC2)CC(N2CCN(c4ccc5c(c4)C(=O)N(C4CCC(=O)NC4=O)C5=O)CC2)C3)cc1 (centres unmarked) [Compound 019]	> 1 nM
CC1(c2ccc(Nc3nc(N4CCCC(N5CCN(C6CCCC6)C5=O)C4)cnc3C(N)=O)cc2)CCN(C2CN(c3cccc4c3C(=O)N(C3CCC(=O)NC3=O)C4=O)C2)CC1 (centres unmarked) [Compound 020, 5-(3-(3-cyclopentyl-2-oxoimidazolin-1-yl)piperidin-1-yl)-3-((4-(1-(1-(2-(2,6-dioxopiperidin-3-yl)-1,3-dioxoisoindol-4-yl)azetidin-3-yl)-4-methylpiperidin-4-yl)phenyl)amino)pyrazin-2-carboxamide]	< 1 nM

Further lines, results first:

DC50	SMILES
< 1 nM	CC1(c2ccc(Nc3nc(N4CCCC(N5CCN(C6CCCC6)C5=O)C4)cnc3C(N)=O)cc2)CCN(C2CN(c3ccc4c(c3)C(=O)N(C3CCC(=O)NC3=O)C4=O)C2)CC1 (centres unmarked) [Compound 001, 5-(3-(3-cyclopentyl-2-oxoimidazolin-1-yl)piperidin-1-yl)-3-((4-(1-(1-(2-(2,6-dioxopiperidin-3-yl)-1,3-dioxoisoindol-5-yl)azetidin-3-yl)-4-methylpiperidin-4-yl)phenyl)amino)pyrazin-2-carboxamide]
< 1 nM	CC1(c2ccc(Nc3nc(N4CCCC(N5CCN(C6COC6)C5=O)C4)cnc3C(N)=O)cc2)CCN(C2CN(c3ccc4c(c3)C(=O)N(C3CCC(=O)NC3=O)C4=O)C2)CC1 (centres unmarked) [Compound 002, 3-((4-(1-(1-(2-(2,6-dioxopiperidin-3-yl)-1,3-dioxoisoindol-5-yl)azetidine-3-yl)-4-methylpiperidin-4-yl)phenyl)amino)-5-(3-(3-(oxetan-3-yl)-2-oxoimidazolin-1-yl)piperidin-1-yl)pyrazin-2-carboxamide]
< 1 nM	CC1(c2ccc(Nc3nc(N4CCCC(N5CCN(C6CCCCC6)C5=O)C4)cnc3C(N)=O)cc2)CCN(C2CN(c3ccc4c(c3)C(=O)N(C3CCC(=O)NC3=O)C4=O)C2)CC1 (centres unmarked) [Compound 003, 5-(3-(3-cyclohexyl-2-oxoimidazolin-1-yl)piperidin-1-yl)-3-((4-(1-(1-(2-(2,6-dioxopiperidin-3-yl)-1,3-dioxoisoindol-5-yl)azetidin-3-yl)-4-methylpiperidin-4-yl)phenyl)amino)pyrazin-2-carboxamide]
< 1 nM	CC1(c2ccc(Nc3nc(N4CCCC(N5CCN(C6CCOCC6)C5=O)C4)cnc3C(N)=O)cc2)CCN(C2CN(c3ccc4c(c3)C(=O)N(C3CCC(=O)NC3=O)C4=O)C2)CC1 (centres unmarked) [Compound 004, 3-((4-(1-(1-(2-(2,6-dioxopiperidin-3-yl)-1,3-dioxoisoindol-5-yl)azetidine-3-yl)-4-methylpiperidin-4-yl)phenyl)amino)-5-(3-(2-oxo-3-(tetrahydro-2H-pyran-4-yl)imidazolin-1-yl)piperidin-1-yl)pyrazin-2-carboxamide]
< 1 nM	CC1(c2ccc(Nc3nc(N4CCCC(N5CC6CCCN6C5=O)C4)cnc3C(N)=O)cc2)CCN(C2CN(c3ccc4c(c3)C(=O)N(C3CCC(=O)NC3=O)C4=O)C2)CC1 (centres unmarked) [Compound 005, 3-((4-(1-(1-(2-(2,6-dioxopiperidin-3-yl)-1,3-dioxoisoindol-5-yl)azetidin-3-yl)-4-methylpiperidin-4-yl)phenyl)amino)-5-(3-(3-oxotetrahydro-1H-pyrrolo[1,2-c]imidazo 1-2(3H)-yl)piperidin-1-yl)pyrazin-2-carboxamide]
< 1 nM	CC1(c2ccc(Nc3nc(N4CCCC(N5CC6CCCCN6C5=O)C4)cnc3C(N)=O)cc2)CCN(C2CN(c3ccc4c(c3)C(=O)N(C3CCC(=O)NC3=O)C4=O)C2)CC1 (centres unmarked) [Compound 006, 3-((4-(1-(1-(2-(2,6-dioxopiperidin-3-yl)-1,3-dioxoisoindol-5-yl)azetidin-3-yl)-4-methylpiperidin-4-yl)phenyl)amino)-5-(3-(3-oxohexahydroimidazo[1,5-a]pyridin-2(3H)-yl)piperidin-1-yl)pyrazin-2-carboxamide]
< 1 nM	CCc1nc(C(N)=O)c(Nc2ccc(C3(C)CCN(C4CN(c5ccc6c(c5)C(=O)N(C5CCC(=O)NC5=O)C6=O)C4)CC3)cc2)nc1N1CCCC(N2CCN(C)C2=O)C1 (centres unmarked) [Compound 007]
< 1 nM	CN1C(=O)N(C2CCCN(c3cnc(C(N)=O)c(Nc4ccc(C5(C)CCN(C6CN(c7ccc8c(c7)C(=O)N(C7CCC(=O)NC7=O)C8=O)C6)CC5)cc4)n3)C2)C2CCCC21 (centres unmarked) [Compound 008, 3-((4-(1-(1-(2-(2,6-dioxopiperidin-3-yl)-1,3-dioxoisoindol-5-yl)azetidin-3-yl)-4-methylpiperidin-4-yl)phenyl)amino)-5-(3-(3-methyl-2-oxohexahydrocyclopenta[d]imidazol-1(2H)-yl)piperidin-1-yl)pyrazin-2-carboxamide]
< 1 nM	CN1C(=O)N(C2CCCN(c3cnc(C(N)=O)c(Nc4ccc(C5(C)CCN(C6CN(c7ccc8c(c7)C(=O)N(C7CCC(=O)NC7=O)C8=O)C6)CC5)cc4)n3)C2)C2CCCCC21 (centres unmarked) [Compound 009, 3-((4-(1-(1-(2-(2,6-dioxopiperidin-3-yl)-1,3-dioxoisoindol-5-yl)azetidin-3-yl)-4-methylpiperidin-4-yl)phenyl)amino)-5-(3-(3-methyl-2-oxooctahydro-1H-benzo[d]imidazol-1-yl)piperidin-1-yl)pyrazin-2-carboxamide]

— patent publication US20240360146A1, “BRUTON'S TYROSINE KINASE AND MUTANT DEGRADER, COMPOSITION AND APPLICATION THEREOF” (HANGZHOU HEALZEN THERAPEUTICS CO., LTD., priority 2021, published 2024)
